Like-named read-outs stand apart in the source and are kept apart here.
What was measured:
[1] = system: EV-D68 MP30 PP (mouse-adapted US/MO/14-18949); test: EV-D68 respiratory infection model in four-week-old AG129 mice; type: in vivo; conditions: days 1 and 3 p.i., P≤0.05 vs placebo; guanidine 100 mg/kg/day
[2] = system: EV-D68 MP30 PP (mouse-adapted); test: EV-D68 neurological infection; type: in vivo, AG129 mice
[3] = system: 215 clinical isolates of EV serotypes; conditions: ~90% of isolates; ref Pevear et al., 1999; cited from earlier work
Coxsackievirus B5 (CVB5) = test: CVB5 CPE rescue; type: cell-based; conditions: Enterovirus B, B5|CVB5, Vero, read-out: EC50 against CVB5
CYP3A4 [4] = target: CYP3A4 (Homo sapiens, UniProt P08684); conditions: human liver microsomes, at higher concentrations (Fig. S21)
[5] = system: EV-D68 MP30 PP (mouse-adapted US/MO/14-18949); conditions: day 3 p.i., during animal model development; ref Hurst et al., 2019; cited from earlier work
mouse-adapted CVB5 = test: Mouse model of CVB5-induced pancreatitis; type: in vivo, BALB/c mice; conditions: CVB5-infected mice, Fig. S20
EV-D68 [6] = conditions: read-out: EC50 against EV-D68; ref Liu et al., 2015b; cited from earlier work
[7] = target: T1, pregnane X-receptor (PXR) (Homo sapiens, UniProt O75469); test: PXR agonist activity
T1 sequence (O75469 1-434): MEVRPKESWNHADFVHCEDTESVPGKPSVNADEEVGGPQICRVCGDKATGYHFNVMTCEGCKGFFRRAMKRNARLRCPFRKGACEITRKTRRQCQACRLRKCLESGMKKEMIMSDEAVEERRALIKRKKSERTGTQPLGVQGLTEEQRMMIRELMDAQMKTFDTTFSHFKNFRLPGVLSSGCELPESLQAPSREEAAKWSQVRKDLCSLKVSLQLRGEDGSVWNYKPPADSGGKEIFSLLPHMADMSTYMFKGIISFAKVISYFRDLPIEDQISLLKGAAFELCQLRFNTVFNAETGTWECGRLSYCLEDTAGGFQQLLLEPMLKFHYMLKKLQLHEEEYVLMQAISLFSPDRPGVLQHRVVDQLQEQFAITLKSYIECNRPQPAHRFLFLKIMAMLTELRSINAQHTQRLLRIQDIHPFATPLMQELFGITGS

EV-71 = conditions: read-out: IC50 against EV-71 in vitro; ref Zhang et al., 2012; cited from earlier work
[8] = system: Coxsackievirus B3-Woodruff (CVB3); test: microbe, parasite or virus in culture; conditions: B3|CVB3, HeLa
[9] = system: Coxsackievirus B3-Woodruff (CVB3); type: cell-based; conditions: Coxsackievirus, B3|CVB3, HeLa, read-out: Inhibitory concentration EC50 against CVB3-Woodruff
CYP3A4 [10] = conditions: 1 μM, rifampicin as positive control, previously tested
[11] = system: enterovirus / picornavirus infections; conditions: cited from earlier work
EV-D68 [12] = conditions: mouse model of EV-D68-associated AFM; ref Hixon et al., 2017; cited from earlier work

Sequence of CYP3A4 (Homo sapiens, UniProt P08684) (P08684 whole entry): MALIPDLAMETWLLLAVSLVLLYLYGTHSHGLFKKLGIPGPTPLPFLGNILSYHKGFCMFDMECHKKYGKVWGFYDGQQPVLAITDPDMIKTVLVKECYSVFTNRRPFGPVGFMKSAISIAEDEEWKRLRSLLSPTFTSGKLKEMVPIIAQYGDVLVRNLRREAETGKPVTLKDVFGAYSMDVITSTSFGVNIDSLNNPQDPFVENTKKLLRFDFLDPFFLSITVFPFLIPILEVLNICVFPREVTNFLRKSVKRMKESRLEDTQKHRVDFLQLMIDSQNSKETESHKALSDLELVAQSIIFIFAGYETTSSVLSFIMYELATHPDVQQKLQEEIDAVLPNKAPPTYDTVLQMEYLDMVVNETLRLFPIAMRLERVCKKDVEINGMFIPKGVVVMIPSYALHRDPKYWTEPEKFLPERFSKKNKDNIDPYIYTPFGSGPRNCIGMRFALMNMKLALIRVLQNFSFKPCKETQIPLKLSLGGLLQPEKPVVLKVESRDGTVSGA

With `Cl.N=C(N)N` [guanidine, Guanidine HCl, reference compound] the Lung virus titers [1] was “showed a reduction”, the Neurological scores ([2]; post-challenge study) was “reduced the neurological score on day 3 post-infection” and the “Mice protected from challenge infection” value ([2]; post-challenge study (treatment 4 hours post-infection)) was over 80%. The “Mice protected from challenge infection” value ([2]; pre-challenge study (treatment 2 hours pre-infection)) was 100% and the “Protection from weight loss” value ([2]; pretreatment, P≤0.0001, Fig. S19) was “significant protection”.

For `Cc1cc(CCCOc2c(C)cc(-c3noc(C(F)(F)F)n3)cc2C)on1` [Pleconaril], the IC90 [3] is given as at most 180 nM, the EC50 (Coxsackievirus B5 (CVB5)) is given as 0.66 nM and the “Effect on CYP3A4 (in words)” value (CYP3A4 [4]) is given as “activation (or autoactivation) of CYP3A4”. The Lung virus titers [5] was “did not demonstrate any antiviral activity”, the “Histology of pancreatic tissue” value (mouse-adapted CVB5) was “no signs of tissue damage” and the EC50 (EV-D68 [6]) was 430 nM. The “PXR agonism (in words)” value [7] was “neither 11526092 nor pleconaril is an agonist”, the IC50 (EV-71) was 340 to 1420 nM and the EC50 ([8]; read-out: Inhibitory concentration EC50 against CVB3-Woodruff, HeLa cells, adding drug to virus and then infecting at MOI 1 PFU / cell, ± SEM) was 45 nM. The EC50 ([8]; read-out: Inhibitory concentration EC50 against CVB3-Woodruff, HeLa cells, adding drug to virus and then infecting at MOI 3 PFU / cell, ± SEM) was 333 ± 210 nM, the EC50 [9] was 150 ± 10 nM and the “CYP3A induction, of control” value (CYP3A4 [10]) was 13 % of control. For the same molecule, the CYP3A induction (CYP3A4 [10]; single donor in duplicate) was 1.7 x, the “Effect on the treatment of the common cold” value ([11]; 400 mg three times a day over five days, ref Hayden et al., 2003) was “no statistically significant effect” and the “Patients with clinical improvement” value ([11]; chronic meningoencephalitis, ref Aradottir et al., 2001, Rotbart et al.) was 78%. For the same molecule, the “Neonates in whom treatment proved effective” value ([11]; neonates with severe enteroviral hepatitis, ref Aradottir et al., 2001) was 2 of 3.

In the case of `CNCCC(Oc1ccc(C(F)(F)F)cc1)c1ccccc1` (stereo not shown) [fluoxetine], the Viral load (EV-D68 [12]) is listed as “did not reduce the viral load”.
